# In US20210171948A1, “COMPOSITIONS AND METHODS FOR TARGETING GLYPICAN-2 IN THE TREATMENT OF CANCER” (Shepherd Therapeutics, Inc., priority 2019, published 2021):
# Strand notation (5' to 3'): a small letter for the sugar, then the base; units joined by * are phosphorothioate-linked, units joined directly phosphodiester-linked; [ ] holds rarer units or linkages, { } end groups; capitals alone tell only the bases. d = 2'-deoxy (DNA); r = 2'-OH (RNA)
# What was measured:
# CHP212 cells [1] = assay: Cell viability after siRNA transfection, Cell Titer Glo 2.0 (Example 3); assay type: cell-based; conditions: CHP212 (Neuroblastoma); 96 hour incubation
# Experimental: (§1) GPC2 mRNA knockdown and changes in cell viability were assessed in multiple cancer cell lines. Cells were transfected with either a scrambled control siRNA or with GPC2 siRNA sequence 3 or sequence 5 from Table 7 using the RNAiMAX Lipofectamine kit (Invitrogen, Carlsbad, Calif.) as previously described in Example 2, either in 96 well format (for viability assays) or 6 well format (for knockdown assessment). Following a 96 hour incubation period, cells were washed and the viability measurement was assessed using Cell Titer Glo 2.0. Total RNA was isolated from the 6 well plate samples to determine knockdown efficiency.
# RH41 cells = assay: as above; assay type: cell-based; conditions: RH41 (Rhabdomyosarcoma); 96 hour incubation
# Experimental: as §1
# TC71 cells = assay: as above; assay type: cell-based; conditions: TC71 (Ewing's Sarcoma); 96 hour incubation
# Experimental: as §1
# COV362 cells = assay: as above; assay type: cell-based; conditions: COV362 (Ovarian Carcinoma); 96 hour incubation
# Experimental: as §1
# TOV112D cells = assay: as above; assay type: cell-based; conditions: TOV112D (Ovarian Carcinoma); 96 hour incubation
# Experimental: as §1
# SNU16 cells = assay: as above; assay type: cell-based; conditions: SNU16 (Gastric); 96 hour incubation
# Experimental: as §1
# SKNAS cells [2] = assay: as above; assay type: cell-based; conditions: SKNAS (Neuroblastoma); 96 hour incubation
# Experimental: as §1
# MCF7 cells = assay: as above; assay type: cell-based; conditions: MCF7 (Breast); 96 hour incubation
# Experimental: as §1
# IMR32 cells = assay: as above; assay type: cell-based; conditions: IMR32 (Neuroblastoma); 96 hour incubation
# Experimental: as §1
# RH30 cells = assay: as above; assay type: cell-based; conditions: RH30 (Rhabdomyosarcoma); 96 hour incubation
# Experimental: as §1
# TC32 cells = assay: as above; assay type: cell-based; conditions: TC32 (Ewing's Sarcoma); 96 hour incubation
# Experimental: as §1
# GIST-T1 cells = assay: as above; assay type: cell-based; conditions: GIST-T1 (Gastrointestinal Stromal); 96 hour incubation
# Experimental: as §1
# KELLY cells [3] = assay: Topotecan IC50 in siRNA-transfected cells, Cell Titer Glo 2.0 viability (Example 10); assay type: cell-based; conditions: for Data Summary: effect of knockdown on sensitivity to topotecan: KELLY; for IC50: KELLY cells transfected with the labelled siRNA, topotecan added 24 hours post transfection, 72 hour incubation
# Experimental: (§2) GPC2 mRNA expression was reduced and changes in cell viability were assessed in multiple neuroblastoma cell lines. Cells were transfected with either a control siRNA or with GPC2 siRNA sequences 5 or 7 from Table 7 using the RNAiMAX Lipofectamine kit (Invitrogen, Carlsbad, Calif.) as previously described in 96 wells for viability assays. Topotecan was added at increasing concentrations (0-5 uM) to transfected cells at 24 hours post transfection. Following a 72 hour incubation period, viability measurements were made using Cell Titer Glo 2.0.
# CHP212 cells [4] = assay: as above; assay type: cell-based; conditions: for Data Summary: effect of knockdown on sensitivity to topotecan: CHP212; for IC50: CHP212 cells transfected with the labelled siRNA, topotecan added 24 hours post transfection, 72 hour incubation
# Experimental: as §2
# SK-N-BE2 cells = assay: as above; assay type: cell-based; conditions: for Data Summary: effect of knockdown on sensitivity to topotecan: SK-N-BE2; for IC50: SK-N-BE2 cells transfected with the labelled siRNA, topotecan added 24 hours post transfection, 72 hour incubation
# Experimental: as §2
# SKNAS cells [5] = assay: as above; assay type: cell-based; conditions: for Data Summary: effect of knockdown on sensitivity to topotecan: SKNAS; for IC50: SKNAS cells transfected with the labelled siRNA, topotecan added 24 hours post transfection, 72 hour incubation
# Experimental: as §2
# SH-SY5Y cells = assay: as above; assay type: cell-based; conditions: for Data Summary: effect of knockdown on sensitivity to topotecan: SH-SY5Y; for IC50: SH-SY5Y cells transfected with the labelled siRNA, topotecan added 24 hours post transfection, 72 hour incubation
# Experimental: as §2
# CHLA-90 cells = assay: as above; assay type: cell-based; conditions: for Data Summary: effect of knockdown on sensitivity to topotecan: CHLA-90; for IC50: CHLA-90 cells transfected with the labelled siRNA, topotecan added 24 hours post transfection, 72 hour incubation
# Experimental: as §2
# GPC2 mRNA = GPC2 mRNA knockdown in cell lines of the cisplatin experiment (Example 5); assay type: cell-based, human
# Experimental: GPC2 mRNA was reduced using the indicated siRNAs and changes in cell viability were assessed in multiple cancer cell lines, in combination with Cisplatin treatment. Cells were transfected with either a scrambled control siRNA or with GPC2 siRNA sequences 3 or 5 from Table 7 using the RNAiMAX Lipofectamine kit (Invitrogen, Carlsbad, Calif.), as previously described, in either in 96 well (for viability assays) or 6 well format (for total RNA). Cisplatin was added at increasing concentrations (0 to 30 uM) to transfected cells at 24 hours post transfection. Following a 72 hour incubation period, cell viability was measured using Cell Titer Glo 2.0. Total RNA samples were also isolated to measure knockdown efficiency.
# KELLY cells [6] = assay: Doxorubicin IC50 in siRNA-transfected cells, Cell Titer Glo viability (Example 8); assay type: cell-based
# Experimental: as §2, with “with GPC-2” for “with GPC2”, “sequences 3,” for “sequences”, “assays. Doxorubicin” for “assays. Topotecan”, “Titer Glo.” for “Titer Glo 2.0.”
# CHLA-172 cells = assay: as above; assay type: cell-based
# Experimental: as §2, with “with GPC-2” for “with GPC2”, “sequences 3,” for “sequences”, “assays. Doxorubicin” for “assays. Topotecan”, “Titer Glo.” for “Titer Glo 2.0.”
# CHLA-136 cells = assay: as above; assay type: cell-based
# Experimental: as §2, with “with GPC-2” for “with GPC2”, “sequences 3,” for “sequences”, “assays. Doxorubicin” for “assays. Topotecan”, “Titer Glo.” for “Titer Glo 2.0.”
# SKNAS cells [7] = assay: as above; assay type: cell-based
# Experimental: as §2, with “with GPC-2” for “with GPC2”, “sequences 3,” for “sequences”, “assays. Doxorubicin” for “assays. Topotecan”, “Titer Glo.” for “Titer Glo 2.0.”
substance,measurement,setting,value
"GPC2 siRNA 5: siRNA duplex: sense CUCAGUAGCCCAGCACUCU[dT][dT] (SEQ ID NO: 211), anti-sense AGAGUGCUGGGCUACUGAG[dT][dT] (SEQ ID NO: 212) (sense CUCAGUAGCCCAGCACUCUTT; antisense AGAGUGCUGGGCUACUGAGTT; sugars from the 5' end r19 d2, backbone not given here; listed as Homo sapiens)",% Viability,CHP212 cells [1],64.46%
same,% Viability,RH41 cells,31.32%
same,% Viability,TC71 cells,100.92%
same,% Viability,COV362 cells,94.27%
same,% Viability,TOV112D cells,81.15%
same,% Viability,SNU16 cells,89.01%
same,% Viability,SKNAS cells [2],56.14%
same,% Viability,MCF7 cells,67.11%
same,% Viability,IMR32 cells,63.62%
same,% Viability,RH30 cells,46.03%
same,% Viability,TC32 cells,77.18%
same,% Viability,GIST-T1 cells,40.13%
same,Data Summary: effect of knockdown on sensitivity to topotecan,KELLY cells [3],not increase sensitivity to topotecan
same,IC50,KELLY cells [3],60 nM
same,Data Summary: effect of knockdown on sensitivity to topotecan,CHP212 cells [4],not increase sensitivity to topotecan
same,IC50,CHP212 cells [4],10 nM
same,Data Summary: effect of knockdown on sensitivity to topotecan,SK-N-BE2 cells,not increase sensitivity to topotecan
same,IC50,SK-N-BE2 cells,10 nM
same,Data Summary: effect of knockdown on sensitivity to topotecan,SKNAS cells [5],increases sensitivity to topotecan
same,IC50,SKNAS cells [5],20 nM
same,Data Summary: effect of knockdown on sensitivity to topotecan,SH-SY5Y cells,not increase sensitivity to topotecan
same,IC50,SH-SY5Y cells,40 nM
same,Data Summary: effect of knockdown on sensitivity to topotecan,CHLA-90 cells,not increase sensitivity to topotecan
same,IC50,CHLA-90 cells,110 nM
same,% GPC2 knockdown,GPC2 mRNA; CHLA-90 (Neuroblastoma),55%
same,% GPC2 knockdown,GPC2 mRNA; CHLA-136 (Neuroblastoma),35%
same,% GPC2 knockdown,GPC2 mRNA; CHLA-172 (Neuroblastoma),8%
same,% GPC2 knockdown,GPC2 mRNA; CHP212 (Neuroblastoma),70%
same,% GPC2 knockdown,GPC2 mRNA; COV362 (Ovarian cancer),89%
same,% GPC2 knockdown,GPC2 mRNA; GIST-T1 (Gastrointestinal Stromal),75%
same,% GPC2 knockdown,GPC2 mRNA; KELLY (Neuroblastoma),75%
same,% GPC2 knockdown,GPC2 mRNA; RH30 (Rhabdomyosarcoma),86%
same,% GPC2 knockdown,GPC2 mRNA; RH41 (Rhabdomyosarcoma),70%
same,% GPC2 knockdown,GPC2 mRNA; SH-SY5Y (Neuroblastoma),75%
same,% GPC2 knockdown,GPC2 mRNA; SK-N-BE2 (Neuroblastoma),68%
same,% GPC2 knockdown,GPC2 mRNA; SKNAS (Neuroblastoma),70%
same,% GPC2 knockdown,GPC2 mRNA; SNU16 (Gastric carcinoma),52%
same,% GPC2 knockdown,GPC2 mRNA; TC32 (Ewing's sarcoma),75%
same,% GPC2 knockdown,GPC2 mRNA; TC71 (Ewing's sarcoma),60%
same,% GPC2 knockdown,GPC2 mRNA; TOV112D (Ovarian cancer),86%
same,Data Summary: effect of knockdown on sensitivity to doxorubicin,KELLY cells [6]; KELLY,not increase sensitivity
same,IC50,"KELLY cells [6]; KELLY cells transfected with the labelled siRNA, doxorubicin added 24 hours post transfection, 72 hour incubation",60 nM
same,Data Summary: effect of knockdown on sensitivity to doxorubicin,CHLA-172 cells; CHLA-172,KD with sequence 5 increases
same,IC50,"CHLA-172 cells; CHLA-172 cells transfected with the labelled siRNA, doxorubicin added 24 hours post transfection, 72 hour incubation",900 nM
same,Data Summary: effect of knockdown on sensitivity to doxorubicin,CHLA-136 cells; CHLA-136,KD with sequence 5 increases
same,IC50,"CHLA-136 cells; CHLA-136 cells transfected with the labelled siRNA, doxorubicin added 24 hours post transfection, 72 hour incubation",80 nM
same,Data Summary: effect of knockdown on sensitivity to doxorubicin,SKNAS cells [7]; SKNAS,increases sensitivity to
same,IC50,"SKNAS cells [7]; SKNAS cells transfected with the labelled siRNA, doxorubicin added 24 hours post transfection, 72 hour incubation",20 nM
"GPC2 siRNA 7: siRNA duplex: sense CUCCUUUCUGGUUCACACA[dT][dT] (SEQ ID NO: 215), anti-sense UGUGUGAACCAGAAAGGAG[dT][dT] (SEQ ID NO: 216) (sense rCrUrCrCrUrUrUrCrUrGrGrUrUrCrArCrArCrAdTdT; antisense rUrGrUrGrUrGrArArCrCrArGrArArArGrGrArGdTdT; listed as Homo sapiens)",Data Summary: effect of knockdown on sensitivity to topotecan,KELLY cells [3],not increase sensitivity to topotecan
same,IC50,KELLY cells [3],20 nM
same,Data Summary: effect of knockdown on sensitivity to topotecan,CHP212 cells [4],not increase sensitivity to topotecan
same,IC50,CHP212 cells [4],10 nM
same,Data Summary: effect of knockdown on sensitivity to topotecan,SK-N-BE2 cells,not increase sensitivity to topotecan
same,IC50,SK-N-BE2 cells,10 nM
same,Data Summary: effect of knockdown on sensitivity to topotecan,SKNAS cells [5],increases sensitivity to topotecan
same,IC50,SKNAS cells [5],20 nM
same,Data Summary: effect of knockdown on sensitivity to topotecan,SH-SY5Y cells,not increase sensitivity to topotecan
same,IC50,SH-SY5Y cells,40 nM
same,Data Summary: effect of knockdown on sensitivity to topotecan,CHLA-90 cells,not increase sensitivity to topotecan
same,IC50,CHLA-90 cells,140 nM
